Measured values as given in the supplement of paper PMC10307832.

Tests used:
Test in all cases: relative viability (nuclei count vs DMSO), 5 days (fraction); higher = more cells survive
[1] = compound: COc1cccc2c1C(=O)c1c(O)c3c(c(O)c1C2=O)C[C@@](O)(C(=O)CO)C[C@@H]3O[C@H]1C[C@H](N)[C@H](O)[C@H](C)O1 [Doxorubicin] + Cc1nc(Nc2ncc(C(=O)Nc3c(C)cccc3Cl)s2)cc(N2CCN(CCO)CC2)n1 [Dasatinib] (partner 0.075 µM)
In short: (§1)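 Lung cancer cell lines in 1536-well plates got either a single drug or a fixed anchor-drug dose together with five library-drug doses (not always all listed) in √10 steps, by pin tool, on the day after seeding. Nuclei were counted after 5 days, and relative viability is the treated-to-vehicle ratio of nuclei counts. Values are medians of duplicate plates.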

[2] = compound: COC1=C(C=C(C=C1)C2=CC3=NC=CN3C(=N2)NC4=C(C=CC=N4)C(=O)N)OC [BAY61-3606] + CC(C)C[C@H](NC(=O)[C@H](Cc1ccccc1)NC(=O)c1cnccn1)B(O)O [Bortezomib] (partner 0.002 µM)
In short: as §1

[3] = compound: COC1=C(C=C(C=C1)C2=CC3=NC=CN3C(=N2)NC4=C(C=CC=N4)C(=O)N)OC [BAY61-3606] + Nc1ncn([C@H]2C[C@H](O)[C@@H](CO)O2)c(=O)n1 [Decitabine] (partner 2 µM)
In short: as §1

[4] = compound: COc1cccc2c1C(=O)c1c(O)c3c(c(O)c1C2=O)C[C@@](O)(C(=O)CO)C[C@@H]3O[C@H]1C[C@H](N)[C@H](O)[C@H](C)O1 [Doxorubicin] + CCNC(=O)c1noc(-c2cc(C(C)C)c(O)cc2O)c1-c1ccc(CN2CCOCC2)cc1 [Luminespib] (partner 0.01 µM)
In short: as §1

Cell Line: HARA
- relative viability ([1]; first compound 0.001 µM): 0.26
- relative viability ([1]; first compound 0.003162 µM): 0.344
- relative viability ([1]; first compound 0.01 µM): 0.296
- relative viability ([1]; first compound 0.03162 µM): 0.261
- relative viability ([1]; first compound 0.1 µM): 0.23
- relative viability ([2]; first compound 0.02 µM): 1.08
- relative viability ([2]; first compound 0.06325 µM): 1.14
- relative viability ([2]; first compound 0.2 µM): 1.19
- relative viability ([2]; first compound 0.6325 µM): 1.09
- relative viability ([2]; first compound 2 µM): 1.1
- relative viability ([3]; first compound 0.02 µM): 0.515
- relative viability ([3]; first compound 0.06325 µM): 0.512
- relative viability ([3]; first compound 0.2 µM): 0.67
- relative viability ([3]; first compound 0.6325 µM): 0.688
- relative viability ([3]; first compound 2 µM): 0.585
- relative viability ([4]; first compound 0.001 µM): 0.644
- relative viability ([4]; first compound 0.003162 µM): 1.1
- relative viability ([4]; first compound 0.01 µM): 0.696
- relative viability ([4]; first compound 0.03162 µM): 0.641
- relative viability ([4]; first compound 0.1 µM): 0.325

Cell Line: HCC-44
- relative viability ([2]; first compound 0.02 µM): 0.889
- relative viability ([2]; first compound 0.06325 µM): 0.847
- relative viability ([2]; first compound 0.2 µM): 0.845
- relative viability ([2]; first compound 0.6325 µM): 0.878
- relative viability ([2]; first compound 2 µM): 0.947
- relative viability ([3]; first compound 0.02 µM): 0.939
- relative viability ([3]; first compound 0.06325 µM): 0.926
- relative viability ([3]; first compound 0.2 µM): 0.931
- relative viability ([3]; first compound 0.6325 µM): 0.911
- relative viability ([3]; first compound 2 µM): 0.957
- relative viability ([4]; first compound 0.001 µM): 0.879
- relative viability ([4]; first compound 0.003162 µM): 0.838
- relative viability ([4]; first compound 0.01 µM): 0.658
- relative viability ([4]; first compound 0.03162 µM): 0.526
- relative viability ([4]; first compound 0.1 µM): 0.273

Cell Line: HCC-78
- relative viability ([1]; first compound 0.001 µM): 0.412
- relative viability ([1]; first compound 0.003162 µM): 0.465
- relative viability ([1]; first compound 0.01 µM): 0.366
- relative viability ([1]; first compound 0.03162 µM): 0.349
- relative viability ([1]; first compound 0.1 µM): 0.363
- relative viability ([2]; first compound 0.02 µM): 0.452
- relative viability ([2]; first compound 0.06325 µM): 0.535
- relative viability ([2]; first compound 0.2 µM): 0.526
- relative viability ([2]; first compound 0.6325 µM): 0.479
- relative viability ([2]; first compound 2 µM): 0.427
- relative viability ([3]; first compound 0.02 µM): 0.643
- relative viability ([3]; first compound 0.06325 µM): 0.676
- relative viability ([3]; first compound 0.2 µM): 0.798
- relative viability ([3]; first compound 0.6325 µM): 0.722
- relative viability ([3]; first compound 2 µM): 0.857

Cell Line: HCC-366
- relative viability ([1]; first compound 0.003162 µM): 0.757
- relative viability ([1]; first compound 0.01 µM): 0.614
- relative viability ([1]; first compound 0.03162 µM): 0.238
- relative viability ([1]; first compound 0.1 µM): 0.212
- relative viability ([2]; first compound 0.02 µM): 1.04
- relative viability ([2]; first compound 0.06325 µM): 1.16
- relative viability ([2]; first compound 0.2 µM): 1.1
- relative viability ([2]; first compound 0.6325 µM): 0.998
- relative viability ([2]; first compound 2 µM): 0.964
- relative viability ([3]; first compound 0.02 µM): 0.379
- relative viability ([3]; first compound 0.06325 µM): 0.433
- relative viability ([3]; first compound 0.2 µM): 0.396
- relative viability ([3]; first compound 0.6325 µM): 0.354
- relative viability ([3]; first compound 2 µM): 0.296

Cell Line: IA-LM
- relative viability ([2]; first compound 0.02 µM): 0.912
- relative viability ([2]; first compound 0.2 µM): 0.917
- relative viability ([2]; first compound 0.6325 µM): 0.797
- relative viability ([2]; first compound 2 µM): 0.68

Cell Line: LK-2
- relative viability ([1]; first compound 0.001 µM): 0.326
- relative viability ([1]; first compound 0.003162 µM): 0.284
- relative viability ([1]; first compound 0.01 µM): 0.221
- relative viability ([1]; first compound 0.03162 µM): 0.286
- relative viability ([1]; first compound 0.1 µM): 0.265
- relative viability ([3]; first compound 0.02 µM): 0.319
- relative viability ([3]; first compound 0.06325 µM): 0.287
- relative viability ([3]; first compound 0.2 µM): 0.362
- relative viability ([3]; first compound 0.6325 µM): 0.28
- relative viability ([3]; first compound 2 µM): 0.342
- relative viability ([4]; first compound 0.001 µM): 0.171
- relative viability ([4]; first compound 0.003162 µM): 0.215
- relative viability ([4]; first compound 0.01 µM): 0.235
- relative viability ([4]; first compound 0.03162 µM): 0.162
- relative viability ([4]; first compound 0.1 µM): 0.16

Cell Line: NCI-H358
- relative viability ([1]; first compound 0.001 µM): 0.175
- relative viability ([1]; first compound 0.003162 µM): 0.161
- relative viability ([1]; first compound 0.01 µM): 0.159
- relative viability ([1]; first compound 0.03162 µM): 0.0904
- relative viability ([1]; first compound 0.1 µM): 0.0827
- relative viability ([3]; first compound 0.02 µM): 0.226
- relative viability ([3]; first compound 0.06325 µM): 0.228
- relative viability ([3]; first compound 0.2 µM): 0.241
- relative viability ([3]; first compound 0.6325 µM): 0.228
- relative viability ([3]; first compound 2 µM): 0.14
- relative viability ([4]; first compound 0.001 µM): 0.213
- relative viability ([4]; first compound 0.003162 µM): 0.471
- relative viability ([4]; first compound 0.01 µM): 0.291
- relative viability ([4]; first compound 0.03162 µM): 0.392
- relative viability ([4]; first compound 0.1 µM): 0.189

Cell Line: NCI-H522
- relative viability ([1]; first compound 0.001 µM): 0.724
- relative viability ([1]; first compound 0.003162 µM): 1.04
- relative viability ([1]; first compound 0.01 µM): 0.873
- relative viability ([1]; first compound 0.03162 µM): 0.776
- relative viability ([1]; first compound 0.1 µM): 1
- relative viability ([3]; first compound 0.02 µM): 0.68
- relative viability ([3]; first compound 0.06325 µM): 0.635
- relative viability ([3]; first compound 0.2 µM): 0.732
- relative viability ([3]; first compound 0.6325 µM): 0.742
- relative viability ([3]; first compound 2 µM): 0.517
- relative viability ([4]; first compound 0.003162 µM): 1.21
- relative viability ([4]; first compound 0.01 µM): 1.12
- relative viability ([4]; first compound 0.03162 µM): 0.885
- relative viability ([4]; first compound 0.1 µM): 1.15

Cell Line: NCI-H1299
- relative viability ([2]; first compound 0.02 µM): 1.08
- relative viability ([2]; first compound 0.06325 µM): 1.03
- relative viability ([2]; first compound 0.2 µM): 1.02
- relative viability ([2]; first compound 0.6325 µM): 1.04
- relative viability ([2]; first compound 2 µM): 0.991

Cell Line: NCI-H1395
- relative viability ([1]; first compound 0.001 µM): 0.415
- relative viability ([1]; first compound 0.003162 µM): 0.422
- relative viability ([1]; first compound 0.01 µM): 0.389
- relative viability ([1]; first compound 0.03162 µM): 0.398
- relative viability ([1]; first compound 0.1 µM): 0.376
- relative viability ([3]; first compound 0.02 µM): 0.824
- relative viability ([3]; first compound 0.06325 µM): 0.709
- relative viability ([3]; first compound 0.2 µM): 0.799
- relative viability ([3]; first compound 0.6325 µM): 0.661
- relative viability ([3]; first compound 2 µM): 0.686
- relative viability ([4]; first compound 0.001 µM): 0.674
- relative viability ([4]; first compound 0.003162 µM): 0.765
- relative viability ([4]; first compound 0.01 µM): 0.476
- relative viability ([4]; first compound 0.03162 µM): 0.697
- relative viability ([4]; first compound 0.1 µM): 0.648
